This is an account of results in patent publication US20090318376A1, “High Throughput Screening Method of Binding Inhibitor Between caspase3 and XIAP and Binding Inhibitor Screened Thereby” (Korea Research Institute of Bioscience and Biotechnology, priority 2006, published 2009).

The target of assay [1] is T1, binding between caspase3 and xIAP (Homo sapiens, UniProt P98170).
T1 construct: made in house; host or cells: E. coli BL21
The assay is described as follows: protein chip (CI-chip) SPR imaging screening of inhibitors of interaction between caspase3 and xIAP. The following applies: within the range from 50 to 400 μM; FIG. 3. The text has this:
Whether the obtained proteins bind to the gold chip having L-glutathione on the surface thereof, was pre-experimented. After a bacteria cell extract containing 20% glycerol, in which GST-tag-fused cas3 (29) obtained in Example 1-1 has been over-expressed, was dispersed in 384 microwell plate, it was spotted on the gold chip having L-glutathione on the surface thereof with a pin having a diameter of 335 μm under a constant humidity of 75% using automatic robotic arrayer(proteogen, CM-1000), and then subjected to RT shaking incubation for 3 hours, thus constructing Cl-chip having gold chip as a substrate.
Inhibitors of interaction between caspase3 and xIAP were screened using the protein chip based on the gold chip prepared in example 1. 920 microorganism-derived samples, which was purely isolated or partially purified, were reacted with 15 μl solution (3.75 μl of more than 50% glycerol; 3 μl of material dissolved in DMSO at a concentration of less than 10 mg/ml; 7.5 μl of xIAP dissolved in PBS at a concentration of more than 1 mg/ml; 0.75 μl of PBS buffer) at 4° C. for 2 hours to apply to the protein chip. Inhibitory activity was analyzed using SPR imaging as the concentration of protein in solution was increased (FIG. 3).

The target in assay [2] is T2, binding of caspase3 and xIAP (Homo sapiens, UniProt P98170).
T2 construct: made in house; host or cells: E. coli BL21
T2 sequence (P98170 whole entry): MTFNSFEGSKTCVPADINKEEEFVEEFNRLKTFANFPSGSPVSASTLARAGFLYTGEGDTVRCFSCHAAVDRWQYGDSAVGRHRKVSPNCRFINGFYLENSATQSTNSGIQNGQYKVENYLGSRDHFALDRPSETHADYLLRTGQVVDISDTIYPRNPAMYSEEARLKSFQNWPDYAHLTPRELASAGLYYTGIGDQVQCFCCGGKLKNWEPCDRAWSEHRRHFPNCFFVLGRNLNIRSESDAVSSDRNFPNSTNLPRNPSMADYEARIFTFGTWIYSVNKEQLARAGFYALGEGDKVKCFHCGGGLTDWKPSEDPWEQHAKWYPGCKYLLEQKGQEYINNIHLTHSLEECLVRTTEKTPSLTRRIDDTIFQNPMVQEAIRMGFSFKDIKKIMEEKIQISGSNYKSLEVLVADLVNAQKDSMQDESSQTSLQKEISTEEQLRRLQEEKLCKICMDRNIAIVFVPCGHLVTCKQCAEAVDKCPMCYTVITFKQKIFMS
The assay can be described thus: pull down assay using tagged MBP. Particulars: chromomycin increased from 50 μM to 200 μM; MBP resin, SDS PAGE; FIG. 4. As to the method: In order to examine whether chromomycin, screened in the example 2, is activated by the reaction of caspase3 and xIAP, pull down assay using tagged MBP (Maltose Binding Protein) was performed. After xIAP and chromomyicin were added to MBP resin and allowed to react on ice for 2 hours, the resulting mixture was added with caspase3 and allowed to react for about 3 hours, and then washed with PBS buffer solution to load onto 10% SDS PAGE, thus examining the reactant (FIG. 4).

The test system of assay [3] is breast cancer cell line MDA-MB-231. The assay is described as follows: inhibition of proliferation of cancer cell lines (WST-8). It counts as cell-based. The following applies: Homo sapiens, WST-8, over 24 hours treatment, read-out: IC 50 (proliferation). On the procedure:
(§1) To examine inhibition of proliferation of the cell lines, the cancer cell lines HCT 116 (Mecoy's 5A medium), SW620 (RPMI 1640) and MDA-MB-231 (RPMI 1640) were cultured to disperse in a 96 well plate. SW620 and HCT116 were innoculated at a concentration of 7,000 cells/100 μl, and MDA-MB-231 was innoculated at a concentration of 5,000 cells/100 μl, respectively, and cultured overnight, followed by an additional reaction of over 24 hours after treating with 1 μl chromomycin prepared according to the concentration. Next, the resulting cells were added with 10 μl of WST-8, counted with an ELISA reader at 450 nm after 2 hours and calculated as a percentage of comparative control added only with DMSO. Inhibitory concentration (IC50), with respect to proliferation of cell lines MDA-MB -231, HCT116, SW620, was measured within the concentration range from 0 to 1 µg/ml by dissolving chromomycin in DMSO (Table 1).
(In general: Tetrazolium assays rely on reduction of a dye to a coloured formazan, in cell work by metabolically active cells.)

For assay [4], the system named is colorectal cancer cell line HCT116. The assay is described as above. The format is cell-based. The following applies: Homo sapiens, HCT-116, WST-8, over 24 hours treatment, read-out: IC 50 (proliferation). As to the method:
as §1

In assay [5] the test system is colorectal cancer cell line SW620. Described as above. The format is cell-based. Particulars: Homo sapiens, SW-620, WST-8, over 24 hours treatment, read-out: IC 50 (proliferation). As to the method:
as §1

T1 sequence (P98170 whole entry): as above

In the case of `COC1C(O)CC(OC2CC(Oc3cc4cc5c(c(O)c4c(O)c3C)C(=O)[C@@H](OC3CC(OC4CC(OC6CC(C)(O)C(OC(C)=O)C(C)O6)C(O)C(C)O4)C(O)C(C)O3)[C@H]([C@H](OC)C(=O)[C@@H](O)[C@@H](C)O)C5)OC(C)C2OC(C)=O)OC1C` (some centres unmarked) [Chromomycin], in assay [1], the “inhibition reaction in the protein chip (SPR imaging)” value is given as “constant inhibition reaction concentration-dependently”. In addition, the “resulting reactant of xIAP (MX) and caspase3 (Cas3) in pull down assay” value in assay [2] is “reduced”. The IC50 was 8.4 nM in assay [3], 6.7 nM in assay [4] and 80 nM in assay [5].
